Results as given in patent US11396511B2, “Substituted 9,13b-dihydro-1H-dibenzo[c,f]imidazo[1,5-a]azepin-3-ylbenzamides as anti-inflammatory and analgesic agents” (FRONTBIO CO., LTD., priority 2017, dated 2022).

Experiments:
[1] = system: Akt; experiment: Western blot analysis, Akt signaling by LPS signals; assay type: cell-based
Method: (§1) Cells were harvested, washed with 1×PBS, and suspended by adding a mixture of a protein extraction buffer (150 mM NaCl, 50 mM Tris-HCl pH 7.4, 5 mM EDTA pH 8.0, 1% NP-40) and a protease inhibitor cocktail. Then, the reaction was allowed to proceed in ice for 20 min, sonicated, and centrifuged (13,000 rpm, 30 min). The concentration of proteins in the supernatant was quantified by a BCA protein assay and proteins were separated on the basis of size on an SDS-PAGE gel. Thereafter, proteins were transferred to a PVDF membrane and blocked with skim milk for 1 h. Primary and secondary antibodies were coupled and photosensitized with ECL solution to determine the expression levels of desired proteins.

[2] = system: Raw 264.7 cells; experiment: Cell viability measurement (MTS); assay type: cell-based
Method: Raw 264.7 cells were plated in a 96-well cell culture plate (50,000 cells/well). The cell culture media were removed from the 96-well cell culture plate. 100 μl of MTS reagent (CellTiter 96 AQueous One Solution Cell Proliferation Assay, Promega) was added to each well and the reaction was allowed to proceed at 37° C. for 20 min. After the reaction was finished, the cell viability were determined by measuring the absorbance at a wavelength of 490 nm.

[3] = system: monosodium urate (MSU) models; experiment: Von-frey test in monosodium urate models; assay type: in vivo, mice; set-up: threshold values (Von-frey test): unit not given here; settings: monosodium urate model; for analgesic efficacy, Von-frey test (in words): oral 10, 20, 40, 80 mg/kg; for concentration of highest analgesic efficacy, Von-frey test: oral 10, 20, 40, 80 mg/kg tested
Method: 100 mg of uric acid and 60 μl of 10 N NaOH were dissolved in 20 ml of distilled water and the pH of the solution was adjusted to 7.2-7.4 with HCl (1 N) at 60° C. After stirring at room temperature for 5 days, the solution was plated in a 1 ml tube and stored for 4 days. The solution was vortexed overnight until needle-like crystals appeared. The solution was washed twice with 100% ethanol and centrifuged at 3000 rpm for 2 min. Finally, the MSU crystals were collected and dissolved in […] of endotoxin-free PBS. The resulting sample were injected intra-articularly into mice (MSU 300 μg/10 μl each) under anesthesia. At 24 h post-injection, pain or ankle swelling were measured to determine the analgesic efficacy of a test substance.
After damage to the sciatic nerve, allodynia induced by the mechanical stimulus was measured. Mice were housed in acrylic chambers on a steel mesh floor and acclimated for ≥60 min before testing. Continuous responses were evaluated using Von-frey filaments by the up-down method. The filaments were brought into vertical contact with the affected left soles and the contact was maintained for 5-6 sec. The response was considered to be positive when the mouse rapidly avoided the stimulus, startled or licked its sole. The Von-frey filaments were first used to stimulate the mice.
The analgesic efficacies of the test substances were evaluated in monosodium urate models. To this end, after oral administration of each test substance at concentrations of 10, 20, 40, and 80 mg/kg, threshold values were measured at different periods of time through Von-frey test.

[4] = system: mice; experiment: Formalin test (5% formalin, hind foot sole); assay type: in vivo; set-up: formalin test pain response: unit not given beside the values; settings: for analgesic efficacy in formalin test (in words): 10, 20, 40, 80 mg/kg
Method: 5% formalin was injected subcutaneously into the soles of the hind feet of mice. The mice licked their soles and shook their paws owing to formalin-induced pain. At 20-40 min post-injection (2nd phase), the mice again licked their soles or shook their paws. Pain felt for 5 min post-injection (1st phase) is the same level as the sensation of pain when the body is harmfully stimulated. Pain between 20 and 40 min (2nd phase) is mainly tonic inflammatory pain and is known to be very similar to pain after a big surgical operation.
30 min after pretreatment with the compound 3 (E-S) at concentrations of 10, 20, 40, and 80 mg/kg, formalin test was conducted to assess the analgesic efficacy of the compound 3. […] The analgesic efficacy of the compound 4 (E-A) was assessed in the same manner as that of the compound 3.

[5] = system: Raw 264.7 cells; experiment: Measurement of NO production in LPS-stimulated Raw 264.7 cells; assay type: cell-based; settings: for inhibition at 12.5 µM / inhibition at 25 µM / inhibition at 50 µM / inhibition at 100 µM: Mus musculus, RAW264.7, LPS 100 ng/ml, 24 h; for reduction of NO production (in words): together with LPS (100 ng/ml)
Method: Raw 264.7 cells were plated in a 96-well cell culture plate (50,000 cells/well). Lipopolysaccharide (LPS) was diluted to 100 ng/ml and the dilution was added to the cell culture media The LPS stimulus was applied for 24 h to induce the activity of the Raw 264.7 cells and supernatants (50 μl each) obtained from the 96-well cell culture plate were plated in a new plate. 50 μl of a sulfanilamide solution was added and the reaction was allowed to proceed for 10 min. 50 μl of a NED solution was added and the reaction was allowed to proceed for 10 min. The amount of NO produced from the cells in the cell culture media was determined by measuring the absorbance at a wavelength of 540 nm.

[6] = system: MAPK; experiment: Western blot analysis, MAPK signaling by LPS signals; assay type: cell-based
Method: as §1

[7] = 10 mg/kg, first column group (1st phase, not given)
[8] = 10 mg/kg, second column group (2nd phase, not given)
[9] = 20 mg/kg, first column group (1st phase, not given)
[10] = 20 mg/kg, second column group (2nd phase, not given)
[11] = 40 mg/kg, first column group (1st phase, not given)
[12] = 40 mg/kg, second column group (2nd phase, not given)
[13] = 80 mg/kg, first column group (1st phase, not given)
[14] = 80 mg/kg, second column group (2nd phase, not given)

SMILES: CC(=O)Oc1ccccc1C(=O)NC1=NCC2c3ccccc3Cc3ccccc3N12 (centres unmarked) [E-A, 2-((9,13b-dihydro-1H-dibenzo[c,f]imidazo[1,5-a]azepin-3-yl)carbamoyl)phenyl acetate]
- effect on Akt signaling by LPS signals [1]: found to affect both MAPK signaling and Akt signaling by LPS signals and reduce the activity of proteins
- cell toxicity (cell viability, MTS) [2]: no cell toxicities were observed
- threshold values (Von-frey test) ([3]; oral 10 mg/kg, basal): 0.186
- threshold values (Von-frey test) ([3]; oral 20 mg/kg, basal): 0.208
- threshold values (Von-frey test) ([3]; oral 40 mg/kg, basal): 0.190
- threshold values (Von-frey test) ([3]; oral 80 mg/kg, basal): 0.186
- analgesic efficacy, Von-frey test (in words) [3]: concentration-dependent until 2-3 h after treatment
- concentration of highest analgesic efficacy, Von-frey test [3]: 80 mg/kg
- formalin test pain response [4, 7]: 73.0
- formalin test pain response [4, 8]: 102.0
- formalin test pain response [4, 9]: 54.7
- formalin test pain response [4, 10]: 83.5
- formalin test pain response [4, 11]: 62.0
- formalin test pain response [4, 12]: 60.0
- formalin test pain response [4, 13]: 61.5
- formalin test pain response [4, 14]: 60.0
- analgesic efficacy in formalin test (in words) [4]: observed in the 2n^d phase
- inhibition at 12.5 µM [5]: 0%
- inhibition at 25 µM [5]: 17.1%
- inhibition at 50 µM [5]: 40.1%
- inhibition at 100 µM [5]: 52.4%
- reduction of NO production (in words) [5]: concentration-dependent reduction in NO production
- effect on MAPK signaling by LPS signals [6]: found to affect both MAPK signaling and Akt signaling by LPS signals and reduce the activity of proteins

SMILES: O=C(NC1=NCC2c3ccccc3Cc3ccccc3N12)c1ccccc1O (centres unmarked) [E-S, N-(9,13b-dihydro-1H-dibenzo[c,f]imidazo[1,5-a]azepin-3-yl)-2-hydroxybenzamide]
- phosphorylation of Akt by LPS ([1]; 100 uM): observed to decrease
- cell toxicity (cell viability, MTS) [2]: no cell toxicities were observed
- threshold values (Von-frey test) ([3]; oral 10 mg/kg, 1 h, 10 mg/kg): 0.173
- threshold values (Von-frey test) ([3]; oral 10 mg/kg, 2 h, 10 mg/kg): 0.211
- threshold values (Von-frey test) ([3]; oral 10 mg/kg, 3 h, 10 mg/kg): 0.148
- threshold values (Von-frey test) ([3]; oral 10 mg/kg, 4 h, 10 mg/kg): 0.166
- threshold values (Von-frey test) ([3]; oral 10 mg/kg, 5 h, 10 mg/kg): 0.107
- threshold values (Von-frey test) ([3]; oral 10 mg/kg, basal): 0.127
- threshold values (Von-frey test) ([3]; oral 20 mg/kg, 1 h, 20 mg/kg): 0.194
- threshold values (Von-frey test) ([3]; oral 20 mg/kg, 2 h, 20 mg/kg): 0.163
- threshold values (Von-frey test) ([3]; oral 20 mg/kg, 4 h, 20 mg/kg): 0.207
- threshold values (Von-frey test) ([3]; oral 20 mg/kg, 5 h, 20 mg/kg): 0.194
- threshold values (Von-frey test) ([3]; oral 20 mg/kg, basal): 0.127
- threshold values (Von-frey test) ([3]; oral 40 mg/kg, 1 h, 40 mg/kg): 0.183
- threshold values (Von-frey test) ([3]; oral 40 mg/kg, 2 h, 40 mg/kg): 0.214
- threshold values (Von-frey test) ([3]; oral 40 mg/kg, 3 h, 40 mg/kg): 0.278
- threshold values (Von-frey test) ([3]; oral 40 mg/kg, 4 h, 40 mg/kg): 0.257
- threshold values (Von-frey test) ([3]; oral 40 mg/kg, 5 h, 40 mg/kg): 0.152
- threshold values (Von-frey test) ([3]; oral 40 mg/kg, basal): 0.127
- threshold values (Von-frey test) ([3]; oral 80 mg/kg, 1 h, 80 mg/kg): 0.239
- threshold values (Von-frey test) ([3]; oral 80 mg/kg, 2 h, 80 mg/kg): 0.439
- threshold values (Von-frey test) ([3]; oral 80 mg/kg, 3 h, 80 mg/kg): 0.301
- threshold values (Von-frey test) ([3]; oral 80 mg/kg, 4 h, 80 mg/kg): 0.267
- threshold values (Von-frey test) ([3]; oral 80 mg/kg, 5 h, 80 mg/kg): 0.155
- threshold values (Von-frey test) ([3]; oral 80 mg/kg, basal): 0.138
- analgesic efficacy, Von-frey test (in words) [3]: concentration-dependent until 2 h after treatment
- concentration of highest analgesic efficacy, Von-frey test [3]: 80 mg/kg
- formalin test pain response [4, 7]: 66.25
- formalin test pain response [4, 8]: 48.5
- formalin test pain response [4, 9]: 60.5
- formalin test pain response [4, 10]: 48.25
- formalin test pain response [4, 11]: 60.5
- formalin test pain response [4, 12]: 45.0
- formalin test pain response [4, 13]: 52.0
- formalin test pain response [4, 14]: 44.5
- analgesic efficacy in formalin test (in words) [4]: observed in the 2nd phase
- inhibition at 12.5 µM [5]: 0%
- inhibition at 25 µM [5]: 9.47%
- inhibition at 50 µM [5]: 30.8%
- inhibition at 100 µM [5]: 40.8%
- reduction of NO production (in words) [5]: concentration-dependent reduction in NO production
- effect on MAPK signaling by LPS signals [6]: did not appear to significantly affect MAPK signaling
